Data published in patent publication US6548059B1, “Promotion of proliferation of adult corneal endothelial cells” (The Schepens Eye Research Institute, Inc., priority 1999, dated 2003).
Where two headings read alike, the source gives them in different places.

What was measured:
[1] = tested on: corneal endothelial cells; conditions: for Avg. % KI67 (+) Cells: 24 hr pre-incubation in mitogen-containing medium, n = 2-3 donor corneas
Experimental: (§1) Twenty-one human corneas were obtained from donors of about 52-75 years of age (Avg.=65.1 years old). Whole corneas were usually cut in quarters to increase sample size. In some cases, whole corneas were used as controls. Corneal pieces were placed endothelial-side up in individual wells of a 24-well tissue culture plate (Falcon, Lincoln Park, N.J.). Pieces were incubated for about 24 hrs in Medium-199 containing 10% fetal bovine serum (FBS), 10 ng/ml epidermal growth factor (EGF) (Upstate Biotechnologies, Lake Placid, N.Y.), 20 ng/ml fibroblast growth factor(FGF) (pituitary-derived, Biomedical Research Technologies, Stoughton, Mass.), and […] gentamicin to stabilize the endothelium prior to study. Ethylenediamine tetraacetic acid (e.g., di-sodium EDTA.2 H2O) was prepared in Hank's Balanced Salt Solution (HBSS) without calcium chloride, magnesium chloride, or magnesium sulfate: Life Technologies, Grand Island, N.Y.), adjusted to pH7.4, and added to the culture medium at a final concentration of 0.02, 0.2, or 2.0 mg/ml. Corneas were treated with EDTA for 10, 30, or 60 min and then returned to culture medium for up to 96 hrs. Negative controls for EDTA treatment included exposing corneal pieces to all manipulations and incubation conditions, including 1 hour in HBSS, but without EDTA. All corneas were maintained at 37° C. in a 5% carbon dioxide, humidified atmosphere until removal for analysis of cell cycle progression.
Immunolocalization was carried out using the same antibodies and protocols as described previously for ZO-1 (10) and Ki67 (19). Corneal pieces stained for Ki67 were mounted in medium containing propidium iodide (PI: Vector Laboratories, Inc., Burlingame, Calif.) to visualize all nuclei. In some cases, samples were double-stained for both Ki67 and ZO-1. Slides were viewed using a Leica TCS 4D confocal microscope equipped with a Leitz DMRBE laser and SCANware 4.2 software (Leica Lasertechnik, Heidelberg, Germany). Images were collected from the central region of the corneal pieces away from the cut edges using a 16×, 40×, or 100×-oil immersion lens. Laser power and gain controls were adjusted to achieve an optimal range of output signal intensity for each channel. Confocal images were collected and micrographs were printed using Photoshop software v4.0 (Adobe Systems, Inc., San Jose, Calif.). For some micrographs, the printing contrast was adjusted to provide a clearer image.
Fluorescence confocal immunocytochemistry for Ki67 was used to evaluate corneal endothelial cells for their ability to enter and complete the cell cycle (i.e., cell proliferation or mitosis). All nuclei were stained with PI. Positive Ki67 staining patterns indicated the presence of actively cycling cells and also acted as markers for specific phases of the cell cycle. Completion of the cell cycle was determined by observation of mitotic figures stained with Ki67. Three representative confocal micrographs were taken per corneal quarter using a 40×-objective lens. An NIH Image v1.62 software program was used to count total PI-stained nuclei, total Ki67-positive cells, and cells in the G1-phase, S/G2-phase, or M-phase of the cell cycle. Cells were counted in five […] areas of each micrograph (=15 areas counted per corneal piece). Counts were averaged and the percentage of actively cycling cells and of cells in each phase of the cell cycle was calculated. Each study was conducted using corneas from 2-3 different donors. Statistical comparisons were made by a paired Student's t-test using a StatView v4.11 software program (Abacus Concepts, Inc., Berkeley, Calif.). Results reported in Table 1 were expressed as percentage of Ki67-positive cells +/−SD.

[2] = tested on: corneal endothelial cell-cell contacts
Experimental: as §1, with “All corneas were maintained at 37° C. in a 5% carbon dioxide, humidified atmosphere until removal for analysis of cell cycle progression.” left out

O=C(O)CN(CCN(CC(=O)O)CC(=O)O)CC(=O)O [EDTA, ethylenediaminetetraacetic acid]
time to complete the cell cycle after EDTA treatment (mitotic figures) ([1]; 24 hours pre-incubation, 0.2 mg/ml EDTA for 60 min, single donor): approximately 48 hrs
Avg. % KI67 (+) Cells ([1]; EDTA 0.2 mg/ml, 30 minutes): 8.67%
Avg. % KI67 (+) Cells ([1]; EDTA 0.2 mg/ml, 60 minutes): 11.99%
percent of the cells stimulated to proliferate ([1]; EDTA 2.0 mg/ml for 60 minutes, after preincubation in culture medium): 16-18%
Avg. % KI67 (+) Cells ([1]; EDTA 2.0 mg/ml, 30 minutes): 14.28%
Avg. % KI67 (+) Cells ([1]; EDTA 2.0 mg/ml, 60 minutes): 17.18%
percent of the cell population that entered the cell cycle ([1]; intact endothelial monolayer treated with EDTA and mitogens): around 17%
cell cycle progression (Ki67 stained nuclei and mitotic figures) ([1]; pre-incubation in mitogen-containing medium, then EDTA, 48 hour post-incubation): did promote cell cycle progression
proliferation (Ki67 staining) with EDTA alone ([1]; up to 2.0 mg/ml EDTA, no prior or simultaneous growth factor, post-incubated 48 hours in mitogen-containing medium): did not promote proliferation
effect on cell-cell contacts (ZO-1 staining) ([2]; 2.0 mg/ml EDTA for 60 minutes): caused cells to become rounded with only thin cytoplasmic strands connecting adjacent cells
percent of treated cells with interrupted cell-contacts ([2]; corneal endothelial cells exposed to EDTA): at least 15%
